Measurements published in ChEMBL document CHEMBL5550132, “Structure-activity relationship in NOD2 agonistic muramyl dipeptides” (Eur J Med Chem, 2024).

Key:
[1] = target: Nuclear factor NF-kappa-B complex (Homo sapiens) (UniProt Q00653+P19838+Q04206); experiment: Activation of NF-KappaB (unknown origin) expressed in HEK293T cells assessed as fold change at 20 uM; assay type: cell-based; conditions: filed as activator
Cavia porcellus [2] = species: Cavia porcellus; experiment: Induction of delayed type hypersensitivity in ABA-BSA immunized Hartley Guinea pigs assessed as reduction in skin lesions at 100 ug measured for 24 hrs; assay type: functional; conditions: dose 100 µg
Cavia porcellus [3] = species: Cavia porcellus; experiment: Induction of delayed type hypersensitivity in ABA-BSA immunized Hartley Guinea pigs assessed as reduction in skin lesions at 100 ug measured for 48 hrs; assay type: functional; conditions: dose 100 µg

Nuclear factor NF-kappa-B complex (Homo sapiens), sequence (P19838 whole entry, looked up): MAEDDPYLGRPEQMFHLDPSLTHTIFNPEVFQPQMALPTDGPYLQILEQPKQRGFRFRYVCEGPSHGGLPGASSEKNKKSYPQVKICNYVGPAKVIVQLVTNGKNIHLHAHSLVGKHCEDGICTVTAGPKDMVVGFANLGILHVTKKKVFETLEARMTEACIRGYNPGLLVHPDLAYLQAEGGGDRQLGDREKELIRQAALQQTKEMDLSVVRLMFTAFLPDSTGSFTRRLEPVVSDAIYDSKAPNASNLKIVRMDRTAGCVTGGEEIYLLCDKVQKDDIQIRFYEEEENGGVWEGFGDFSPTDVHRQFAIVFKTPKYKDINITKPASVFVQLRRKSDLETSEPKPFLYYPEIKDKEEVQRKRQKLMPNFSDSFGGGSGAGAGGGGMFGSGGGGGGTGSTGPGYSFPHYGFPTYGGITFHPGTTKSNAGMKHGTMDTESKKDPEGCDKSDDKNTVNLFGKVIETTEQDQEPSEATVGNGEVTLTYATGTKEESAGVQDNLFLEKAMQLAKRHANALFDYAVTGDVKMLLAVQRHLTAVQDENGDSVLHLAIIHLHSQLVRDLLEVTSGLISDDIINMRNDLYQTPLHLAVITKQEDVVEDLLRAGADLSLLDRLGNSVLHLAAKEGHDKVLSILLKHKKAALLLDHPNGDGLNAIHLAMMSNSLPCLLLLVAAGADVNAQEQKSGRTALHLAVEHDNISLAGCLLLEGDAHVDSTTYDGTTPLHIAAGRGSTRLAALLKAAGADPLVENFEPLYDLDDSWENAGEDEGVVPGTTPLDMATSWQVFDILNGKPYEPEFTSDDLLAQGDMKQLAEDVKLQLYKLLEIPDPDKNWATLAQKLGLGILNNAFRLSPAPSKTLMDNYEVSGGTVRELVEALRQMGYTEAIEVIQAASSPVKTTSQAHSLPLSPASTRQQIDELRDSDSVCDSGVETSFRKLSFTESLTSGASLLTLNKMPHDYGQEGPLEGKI
Nuclear factor NF-kappa-B complex (Homo sapiens), sequence (Q00653 whole entry, looked up): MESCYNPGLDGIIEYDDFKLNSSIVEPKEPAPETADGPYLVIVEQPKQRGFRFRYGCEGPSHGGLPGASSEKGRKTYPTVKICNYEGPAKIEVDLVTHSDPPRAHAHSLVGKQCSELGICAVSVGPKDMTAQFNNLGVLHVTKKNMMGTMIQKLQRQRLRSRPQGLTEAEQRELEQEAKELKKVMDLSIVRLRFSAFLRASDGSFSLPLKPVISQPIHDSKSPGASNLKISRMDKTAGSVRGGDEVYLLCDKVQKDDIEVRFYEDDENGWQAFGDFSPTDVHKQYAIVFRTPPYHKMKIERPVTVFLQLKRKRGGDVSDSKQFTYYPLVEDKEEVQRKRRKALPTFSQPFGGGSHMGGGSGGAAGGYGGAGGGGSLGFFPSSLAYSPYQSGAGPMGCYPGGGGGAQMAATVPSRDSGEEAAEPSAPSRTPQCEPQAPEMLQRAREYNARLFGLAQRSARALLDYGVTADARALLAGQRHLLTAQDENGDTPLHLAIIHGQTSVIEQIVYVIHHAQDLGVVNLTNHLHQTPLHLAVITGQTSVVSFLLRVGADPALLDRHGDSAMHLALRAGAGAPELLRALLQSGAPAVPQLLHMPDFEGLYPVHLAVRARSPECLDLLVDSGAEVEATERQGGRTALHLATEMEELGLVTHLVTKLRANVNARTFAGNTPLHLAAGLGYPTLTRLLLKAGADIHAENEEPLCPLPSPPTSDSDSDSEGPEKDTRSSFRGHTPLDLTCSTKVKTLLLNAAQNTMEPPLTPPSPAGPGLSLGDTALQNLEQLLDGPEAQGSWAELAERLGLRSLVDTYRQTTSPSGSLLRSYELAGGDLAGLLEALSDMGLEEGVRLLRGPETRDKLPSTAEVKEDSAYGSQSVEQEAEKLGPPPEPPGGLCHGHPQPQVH
Nuclear factor NF-kappa-B complex (Homo sapiens), sequence (Q04206 whole entry, looked up): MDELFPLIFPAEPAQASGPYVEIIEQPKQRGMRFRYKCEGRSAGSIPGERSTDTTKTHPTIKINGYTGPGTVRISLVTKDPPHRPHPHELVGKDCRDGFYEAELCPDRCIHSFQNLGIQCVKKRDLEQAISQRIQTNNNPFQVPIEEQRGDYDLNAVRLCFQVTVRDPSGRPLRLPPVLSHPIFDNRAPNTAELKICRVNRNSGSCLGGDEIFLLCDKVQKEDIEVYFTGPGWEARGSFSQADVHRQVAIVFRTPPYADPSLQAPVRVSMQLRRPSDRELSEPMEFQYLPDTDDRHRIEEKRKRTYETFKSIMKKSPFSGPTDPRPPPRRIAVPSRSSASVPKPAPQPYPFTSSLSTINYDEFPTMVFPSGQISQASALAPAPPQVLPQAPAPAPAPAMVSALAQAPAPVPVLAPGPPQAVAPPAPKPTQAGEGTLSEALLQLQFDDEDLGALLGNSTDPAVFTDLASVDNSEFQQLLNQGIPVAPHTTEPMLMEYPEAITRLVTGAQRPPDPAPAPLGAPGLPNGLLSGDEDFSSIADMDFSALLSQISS

SMILES | fold change (FC) [1] | Activity (Cavia porcellus [2]) [mm] | Activity (Cavia porcellus [3]) [mm]
CC(=O)NC[C@H]1O[C@@H](O)[C@H](NC(C)=O)[C@@H](O[C@H](C)C(=O)N[C@@H](CO)C(=O)N[C@H](CCC(=O)O)C(N)=O)[C@@H]1O |  | 20.4 | 19.6
CC(=O)N[C@@H]1[C@@H](O[C@H](C)C(=O)N[C@@H](CO)C(=O)N[C@H](CCC(=O)O)C(N)=O)[C@H](O)[C@@H](CN)O[C@H]1O |  | 21.6 | 22.3
CC(=O)N[C@@H]1[C@@H](O[C@H](C)C(=O)N[C@H](C(=O)N[C@H](CCC(=O)O)C(N)=O)C(C)C)[C@H](O)[C@@H](CN)O[C@H]1O |  | 20.4 | 15.3
C[C@H](NC(=O)[C@@H](C)O[C@@H]1[C@@H](N)[C@H](O)O[C@H](CN)[C@H]1O)C(=O)N[C@H](CCC(=O)O)C(N)=O |  | 15.1 | 9.3
CC(=O)N[C@@H]1[C@@H](O[C@H](C)C(=O)N[C@@H](CO)C(=O)N[C@H](CCC(=O)O)C(N)=O)[C@H](O)[C@@H](CO)O[C@H]1O |  | 23.1 | 21.6
CCCCCCCCCCCCCCCCCC(=O)NC[C@H]1O[C@@H](O)[C@H](NC(C)=O)[C@@H](O[C@H](C)C(=O)N[C@H](C(=O)N[C@H](CCC(=O)O)C(N)=O)C(C)C)[C@@H]1O |  | 22.5 | 18.5
C[C@H](NC(=O)[C@@H](C)O[C@@H]1[C@@H](N)[C@H](O)O[C@H](CN)[C@H]1O)C(=O)N[C@H](CCC(=O)O)C(N)=O.Cl.Cl |  | 17.1 | 5.1
CC(=O)NC[C@H]1O[C@@H](O)[C@H](NC(C)=O)[C@@H](O[C@H](C)C(=O)N[C@@H](C)C(=O)N[C@H](CCC(=O)O)C(N)=O)[C@@H]1O |  | 21.4 | 16.7
CC(=O)NC[C@H]1O[C@@H](O)[C@H](NC(C)=O)[C@@H](O[C@H](C)C(=O)N[C@H](C(=O)N[C@H](CCC(=O)O)C(N)=O)C(C)C)[C@@H]1O |  | 19.1 | 19.5
CCCCCCCCCCCCCCOC(=O)CC[C@@H](NC(=O)[C@H](C)NC(=O)[C@@H](C)O[C@H]1[C@H](O)[C@@H](CO)O[C@@H](OCc2ccccc2)[C@@H]1N=[N+]=[N-])C(N)=O | 0.04 |  | 

Continued, in another order:

fold change (FC) [1] | SMILES | Activity (Cavia porcellus [2]) [mm] | Activity (Cavia porcellus [3]) [mm]
2.3 | C[C@H](NC(=O)[C@@H](C)O[C@H]1[C@H](O)[C@@H](CO)O[C@@H](O)[C@@H]1NC(=O)CCC(=O)O)C(=O)N[C@H](CCC(=O)O)C(N)=O |  | 
2.5 | C[C@H](NC(=O)[C@@H](C)O[C@H]1[C@H](O)[C@@H](CO)O[C@@H](O)[C@@H]1NOC(=O)CCCC[C@@H]1SC[C@@H]2NC(=O)N[C@@H]21)C(=O)N[C@H](CCC(=O)O)C(N)=O |  | 
0.08 | C[C@H](NC(=O)[C@@H](C)O[C@H]1[C@H](O)[C@@H](CO)O[C@@H](OCc2ccccc2)[C@@H]1N=[N+]=[N-])C(=O)N[C@H](CCC(=O)O)C(N)=O |  | 
1.8 | C[C@H](NC(=O)[C@@H](C)O[C@H]1[C@H](O)[C@@H](CO)O[C@@H](O)[C@@H]1NC(=O)CN=[N+]=[N-])C(=O)N[C@H](CCC(=O)O)C(N)=O |  | 
0.11 | C[C@H](NC(=O)[C@@H](C)O[C@H]1[C@H](O)[C@@H](CO)O[C@@H](OCc2ccccc2)[C@@H]1N=[N+]=[N-])C(=O)N[C@H](CCC(=O)OCc1ccccc1)C(N)=O |  | 
2.4 | COC(=O)CCC(=O)N[C@@H]1[C@@H](O[C@H](C)C(=O)N[C@@H](C)C(=O)N[C@H](CCC(=O)O)C(N)=O)[C@H](O)[C@@H](CO)O[C@H]1O |  | 
2.2 | CC(=O)OCC(=O)N[C@@H]1[C@@H](O[C@H](C)C(=O)N[C@@H](C)C(=O)N[C@H](CCC(=O)O)C(N)=O)[C@H](O)[C@@H](CO)O[C@H]1O |  | 
1.9 | C[C@H](NC(=O)[C@@H](C)O[C@H]1[C@H](O)[C@@H](CO)O[C@@H](O)[C@@H]1NC(=O)C(F)(F)F)C(=O)N[C@H](CCC(=O)O)C(N)=O |  | 
0.04 | CCCCCCCCOC(=O)CC[C@@H](NC(=O)[C@H](C)NC(=O)[C@@H](C)O[C@H]1[C@H](O)[C@@H](CO)O[C@@H](OCc2ccccc2)[C@@H]1N=[N+]=[N-])C(N)=O |  | 
